Reference: patent publication US11572590B2, “Methods for evaluating tumor cell spheroids using 3D microfluidic cell culture device” (Dana-Farber Cancer Institute, Inc., priority 2017, dated 2023)
Like-named read-outs stand apart in the source and are kept apart here.

How the values were obtained:
Test in all cases: SelectScreen Kinase Profiling, single point inhibition and IC50 for off-target kinases
Type in all cases: biochemical
off-target kinases [1] = target: T1, off-target kinases (Homo sapiens, UniProt P52564)
T1 sequence (P52564 1-334): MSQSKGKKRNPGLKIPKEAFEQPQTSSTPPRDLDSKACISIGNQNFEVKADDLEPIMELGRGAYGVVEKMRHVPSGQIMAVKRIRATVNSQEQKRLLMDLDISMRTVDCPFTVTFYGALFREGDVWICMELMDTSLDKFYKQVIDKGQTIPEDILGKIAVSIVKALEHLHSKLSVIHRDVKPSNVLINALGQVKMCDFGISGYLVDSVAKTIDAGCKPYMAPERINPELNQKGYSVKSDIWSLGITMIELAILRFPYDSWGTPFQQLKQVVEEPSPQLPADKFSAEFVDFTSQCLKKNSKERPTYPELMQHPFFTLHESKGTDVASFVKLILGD

off-target kinases [2] = target: T2, off-target kinases (Homo sapiens, UniProt P51813); conditions: BMX, ZLYTE, ATP Km app
T2 sequence (P51813 1-675): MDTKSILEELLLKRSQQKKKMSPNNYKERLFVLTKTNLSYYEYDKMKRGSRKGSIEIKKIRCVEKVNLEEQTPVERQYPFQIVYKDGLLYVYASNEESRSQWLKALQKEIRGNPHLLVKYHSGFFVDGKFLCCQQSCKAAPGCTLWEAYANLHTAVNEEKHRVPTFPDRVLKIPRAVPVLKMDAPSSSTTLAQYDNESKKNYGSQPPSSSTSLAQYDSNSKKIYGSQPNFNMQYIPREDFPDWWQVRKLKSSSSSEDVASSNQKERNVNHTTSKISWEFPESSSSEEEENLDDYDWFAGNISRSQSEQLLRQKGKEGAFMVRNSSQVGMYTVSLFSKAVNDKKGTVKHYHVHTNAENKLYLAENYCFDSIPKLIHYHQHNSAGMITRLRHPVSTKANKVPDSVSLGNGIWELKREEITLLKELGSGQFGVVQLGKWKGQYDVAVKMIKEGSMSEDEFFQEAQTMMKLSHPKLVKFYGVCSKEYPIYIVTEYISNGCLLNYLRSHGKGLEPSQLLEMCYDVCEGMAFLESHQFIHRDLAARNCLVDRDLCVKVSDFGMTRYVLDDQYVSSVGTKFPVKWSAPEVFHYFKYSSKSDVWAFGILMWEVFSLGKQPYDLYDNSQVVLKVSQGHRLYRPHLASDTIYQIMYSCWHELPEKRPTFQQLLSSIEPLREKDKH

off-target kinases [3] = target: off-target kinases (Homo sapiens, UniProt P10721, Y823D); conditions: KIT Y823D, LanthaScreen Binding
off-target kinases [4] = target: off-target kinases (Homo sapiens, UniProt Q07912); conditions: TNK2 (ACK), LanthaScreen Binding
off-target kinases [5] = target: off-target kinases (Homo sapiens, UniProt P23443); conditions: RPS6KB1 (p70S6K), ZLYTE, ATP Km app
off-target kinases [6] = target: off-target kinases (Homo sapiens, UniProt P53667); conditions: LIMK1, LanthaScreen Binding
off-target kinases [7] = target: off-target kinases (Homo sapiens, UniProt Q02750, S218D/S222D); conditions: MAP2K1 (MEK1) S218D S222D (mutant), LanthaScreen Binding
off-target kinases [8] = target: off-target kinases (Homo sapiens, UniProt P54764); conditions: EPHA4, ZLYTE, ATP Km app
Chain of off-target kinases (Homo sapiens, UniProt P54764) (P54764 20-986): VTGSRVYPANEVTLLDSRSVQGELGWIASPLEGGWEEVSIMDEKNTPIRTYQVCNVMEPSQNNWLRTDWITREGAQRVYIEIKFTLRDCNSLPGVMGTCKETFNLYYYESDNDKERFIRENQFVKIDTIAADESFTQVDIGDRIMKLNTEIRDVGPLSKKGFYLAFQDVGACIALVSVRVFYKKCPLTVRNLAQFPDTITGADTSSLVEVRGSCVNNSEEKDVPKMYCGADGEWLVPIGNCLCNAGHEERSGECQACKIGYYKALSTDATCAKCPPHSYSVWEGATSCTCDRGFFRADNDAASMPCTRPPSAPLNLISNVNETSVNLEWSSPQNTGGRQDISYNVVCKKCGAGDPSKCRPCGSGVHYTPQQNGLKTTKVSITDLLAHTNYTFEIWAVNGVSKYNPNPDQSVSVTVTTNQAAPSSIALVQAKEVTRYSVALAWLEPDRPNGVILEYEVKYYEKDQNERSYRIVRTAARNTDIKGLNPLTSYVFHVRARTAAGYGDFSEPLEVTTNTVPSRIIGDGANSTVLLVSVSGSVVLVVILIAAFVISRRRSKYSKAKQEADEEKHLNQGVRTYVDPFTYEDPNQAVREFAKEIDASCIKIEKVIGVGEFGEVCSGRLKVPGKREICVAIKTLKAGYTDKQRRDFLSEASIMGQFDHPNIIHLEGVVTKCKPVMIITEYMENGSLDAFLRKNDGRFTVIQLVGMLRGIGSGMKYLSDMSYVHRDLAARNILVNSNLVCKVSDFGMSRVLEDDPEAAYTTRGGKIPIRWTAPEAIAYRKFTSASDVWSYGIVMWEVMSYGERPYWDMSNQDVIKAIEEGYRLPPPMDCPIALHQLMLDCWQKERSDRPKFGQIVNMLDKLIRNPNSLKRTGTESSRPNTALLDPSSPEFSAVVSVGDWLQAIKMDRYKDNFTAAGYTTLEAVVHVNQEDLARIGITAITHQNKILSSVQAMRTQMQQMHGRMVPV

Chain of off-target kinases (Homo sapiens, UniProt Q07912) (Q07912 whole entry): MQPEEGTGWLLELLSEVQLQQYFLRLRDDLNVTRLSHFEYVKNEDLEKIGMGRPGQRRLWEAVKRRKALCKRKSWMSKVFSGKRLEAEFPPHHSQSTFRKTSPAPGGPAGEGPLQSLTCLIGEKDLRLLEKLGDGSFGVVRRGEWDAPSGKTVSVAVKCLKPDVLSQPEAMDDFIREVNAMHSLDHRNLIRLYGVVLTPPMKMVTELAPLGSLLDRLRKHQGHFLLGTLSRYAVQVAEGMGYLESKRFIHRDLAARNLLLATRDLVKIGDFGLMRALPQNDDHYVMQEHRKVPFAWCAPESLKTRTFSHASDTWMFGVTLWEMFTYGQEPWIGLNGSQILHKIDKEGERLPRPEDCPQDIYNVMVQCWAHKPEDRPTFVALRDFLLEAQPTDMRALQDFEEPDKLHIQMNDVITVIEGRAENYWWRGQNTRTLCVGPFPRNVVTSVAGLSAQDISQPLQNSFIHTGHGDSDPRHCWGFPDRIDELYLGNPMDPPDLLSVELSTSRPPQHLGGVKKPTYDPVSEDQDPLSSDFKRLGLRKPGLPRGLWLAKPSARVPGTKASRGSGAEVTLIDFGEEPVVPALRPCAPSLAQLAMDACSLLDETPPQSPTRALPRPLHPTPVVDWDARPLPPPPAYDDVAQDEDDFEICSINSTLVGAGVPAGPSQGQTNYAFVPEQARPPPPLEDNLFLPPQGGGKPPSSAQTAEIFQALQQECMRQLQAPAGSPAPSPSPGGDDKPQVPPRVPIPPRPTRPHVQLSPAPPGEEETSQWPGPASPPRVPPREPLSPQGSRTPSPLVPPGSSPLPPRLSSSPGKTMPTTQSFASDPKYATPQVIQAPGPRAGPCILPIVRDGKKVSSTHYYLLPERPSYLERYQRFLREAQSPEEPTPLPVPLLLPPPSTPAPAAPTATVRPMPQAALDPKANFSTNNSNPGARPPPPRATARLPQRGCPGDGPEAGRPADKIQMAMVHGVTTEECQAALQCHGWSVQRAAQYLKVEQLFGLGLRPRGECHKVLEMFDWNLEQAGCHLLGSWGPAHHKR
Chain of off-target kinases (Homo sapiens, UniProt P23443) (P23443 whole entry): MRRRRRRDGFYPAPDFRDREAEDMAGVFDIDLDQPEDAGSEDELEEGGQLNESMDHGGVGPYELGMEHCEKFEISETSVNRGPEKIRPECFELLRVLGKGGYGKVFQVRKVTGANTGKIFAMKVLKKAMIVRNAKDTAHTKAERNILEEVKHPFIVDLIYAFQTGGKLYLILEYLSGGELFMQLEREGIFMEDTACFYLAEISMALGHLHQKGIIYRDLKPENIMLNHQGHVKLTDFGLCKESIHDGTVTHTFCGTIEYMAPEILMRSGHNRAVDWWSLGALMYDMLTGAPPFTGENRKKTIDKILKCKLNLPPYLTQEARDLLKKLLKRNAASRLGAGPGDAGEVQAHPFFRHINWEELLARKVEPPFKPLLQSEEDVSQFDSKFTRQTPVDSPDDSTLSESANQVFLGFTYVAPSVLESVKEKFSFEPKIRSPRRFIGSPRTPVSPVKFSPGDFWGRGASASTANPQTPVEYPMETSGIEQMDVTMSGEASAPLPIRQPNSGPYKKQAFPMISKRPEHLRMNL
Chain of off-target kinases (Homo sapiens, UniProt P10721, Y823D) (P10721 26-976 Y823D): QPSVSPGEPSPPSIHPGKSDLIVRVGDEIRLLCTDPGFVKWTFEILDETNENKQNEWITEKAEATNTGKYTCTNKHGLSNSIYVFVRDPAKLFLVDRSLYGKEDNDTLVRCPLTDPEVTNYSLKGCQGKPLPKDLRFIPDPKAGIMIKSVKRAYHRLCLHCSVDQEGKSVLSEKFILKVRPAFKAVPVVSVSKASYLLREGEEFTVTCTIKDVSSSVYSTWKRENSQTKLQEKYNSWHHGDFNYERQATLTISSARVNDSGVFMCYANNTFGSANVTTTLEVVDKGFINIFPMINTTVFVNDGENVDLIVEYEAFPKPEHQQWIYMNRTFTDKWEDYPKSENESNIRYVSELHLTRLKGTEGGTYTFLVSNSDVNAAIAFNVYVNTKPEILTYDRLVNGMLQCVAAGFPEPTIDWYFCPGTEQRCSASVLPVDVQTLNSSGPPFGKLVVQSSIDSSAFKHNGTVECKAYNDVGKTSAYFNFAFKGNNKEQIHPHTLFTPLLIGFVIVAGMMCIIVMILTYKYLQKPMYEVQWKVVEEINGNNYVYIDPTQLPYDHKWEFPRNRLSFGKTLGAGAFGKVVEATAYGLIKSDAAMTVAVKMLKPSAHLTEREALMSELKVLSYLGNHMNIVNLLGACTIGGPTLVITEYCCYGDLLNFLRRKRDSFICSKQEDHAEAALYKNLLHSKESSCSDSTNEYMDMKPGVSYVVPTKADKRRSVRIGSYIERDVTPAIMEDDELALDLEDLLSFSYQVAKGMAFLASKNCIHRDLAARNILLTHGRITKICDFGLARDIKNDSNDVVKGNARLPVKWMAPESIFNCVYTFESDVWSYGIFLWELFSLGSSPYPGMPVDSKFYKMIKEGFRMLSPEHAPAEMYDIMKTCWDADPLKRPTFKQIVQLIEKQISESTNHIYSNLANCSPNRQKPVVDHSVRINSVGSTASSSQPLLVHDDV
Chain of off-target kinases (Homo sapiens, UniProt Q02750, S218D/S222D) (Q02750 whole entry S218D/S222D): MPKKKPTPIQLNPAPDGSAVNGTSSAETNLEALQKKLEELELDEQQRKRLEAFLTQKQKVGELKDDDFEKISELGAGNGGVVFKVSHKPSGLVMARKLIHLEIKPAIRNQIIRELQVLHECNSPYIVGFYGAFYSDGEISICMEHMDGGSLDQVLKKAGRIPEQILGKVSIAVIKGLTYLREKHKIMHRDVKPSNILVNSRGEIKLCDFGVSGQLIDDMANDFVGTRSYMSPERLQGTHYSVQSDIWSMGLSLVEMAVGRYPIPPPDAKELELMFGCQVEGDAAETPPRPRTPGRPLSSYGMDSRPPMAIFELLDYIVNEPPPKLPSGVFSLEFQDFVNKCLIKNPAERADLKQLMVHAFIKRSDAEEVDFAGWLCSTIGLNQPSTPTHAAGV
Chain of off-target kinases (Homo sapiens, UniProt P53667) (P53667 whole entry): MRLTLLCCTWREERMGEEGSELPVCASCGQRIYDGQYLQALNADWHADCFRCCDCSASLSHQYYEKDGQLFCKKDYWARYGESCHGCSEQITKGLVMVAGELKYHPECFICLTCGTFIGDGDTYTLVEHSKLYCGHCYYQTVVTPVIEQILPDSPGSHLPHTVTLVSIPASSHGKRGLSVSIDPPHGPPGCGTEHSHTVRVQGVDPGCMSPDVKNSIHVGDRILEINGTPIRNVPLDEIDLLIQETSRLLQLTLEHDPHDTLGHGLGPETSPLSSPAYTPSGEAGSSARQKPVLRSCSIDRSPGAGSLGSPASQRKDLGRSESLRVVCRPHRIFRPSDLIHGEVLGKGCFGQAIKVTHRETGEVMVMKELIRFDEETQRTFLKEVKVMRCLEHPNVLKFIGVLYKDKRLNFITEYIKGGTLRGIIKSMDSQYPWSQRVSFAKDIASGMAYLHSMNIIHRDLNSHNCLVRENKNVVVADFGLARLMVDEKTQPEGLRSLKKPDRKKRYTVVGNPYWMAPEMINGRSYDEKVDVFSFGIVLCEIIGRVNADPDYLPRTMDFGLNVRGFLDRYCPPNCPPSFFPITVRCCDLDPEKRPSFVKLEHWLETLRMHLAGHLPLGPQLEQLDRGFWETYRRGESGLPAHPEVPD

Question: How did the inhibition (off-target kinases [1]; MAP2K6 (MKK6), LanthaScreen Binding, read-out: % Inhibition 2) turn out when `N#Cc1cc(-c2ncnc(Nc3ccc(N4CCN(C5COC5)CC4)cc3)n2)ccc1OC1CCOCC1` [Compound 1, 5-(4-((4-(4-(oxetan-3-yl)piperazin-1-yl)phenyl)amino)-1,3,5-triazin-2-yl)-2-((tetrahydro-2H-pyran-4-yl)oxy)benzonitrile] was run?
Answer: 4%

Question: And the inhibition (off-target kinases [1]; MAP2K6 (MKK6), LanthaScreen Binding, read-out: % Inhibition Avg)?
Answer: 1%

Question: What about the inhibition (off-target kinases [1]; MAP2K6 (MKK6), ZLYTE, ATP 100, read-out: % Inhibition 1) of the same molecule?
Answer: 0%

Question: What about the inhibition (off-target kinases [1]; MAP2K6 (MKK6), ZLYTE, ATP 100, read-out: % Inhibition 2) of the same molecule?
Answer: 19%

Question: What about the inhibition (off-target kinases [1]; MAP2K6 (MKK6), ZLYTE, ATP 100, read-out: % Inhibition Avg) of the same molecule?
Answer: 9%

Question: And the inhibition (off-target kinases [1]; read-out: % Inhibition 1)?
Answer: -2%

Question: What about the inhibition (off-target kinases [2]; read-out: % Inhibition 1) of the same molecule?
Answer: 12%

Question: What about the inhibition (off-target kinases [2]; read-out: % Inhibition 2) of the same molecule?
Answer: 13%

Question: And the inhibition (off-target kinases [2]; read-out: % Inhibition Avg)?
Answer: 12%

Question: What about the inhibition (off-target kinases [3]; read-out: % Inhibition 1) of the same molecule?
Answer: 47%

Question: And the inhibition (off-target kinases [3]; read-out: % Inhibition 2)?
Answer: 59%

Question: What about the inhibition (off-target kinases [3]; read-out: % Inhibition Avg) of the same molecule?
Answer: 53%

Question: What about the inhibition (off-target kinases [4]; read-out: % Inhibition 1) of the same molecule?
Answer: 25%

Question: What about the inhibition (off-target kinases [4]; read-out: % Inhibition 2) of the same molecule?
Answer: 26%

Question: And the inhibition (off-target kinases [4]; read-out: % Inhibition Avg)?
Answer: 25%

Question: And the inhibition (off-target kinases [5]; read-out: % Inhibition 1)?
Answer: 37%

Question: And the inhibition (off-target kinases [5]; read-out: % Inhibition 2)?
Answer: 36%

Question: And the inhibition (off-target kinases [5]; read-out: % Inhibition Avg)?
Answer: 37%

Question: And the inhibition (off-target kinases [6]; read-out: % Inhibition 1)?
Answer: 40%

Question: And the inhibition (off-target kinases [6]; read-out: % Inhibition 2)?
Answer: 39%

Question: What about the inhibition (off-target kinases [6]; read-out: % Inhibition Avg) of the same molecule?
Answer: 40%

Question: What about the inhibition (off-target kinases [7]; read-out: % Inhibition 1) of the same molecule?
Answer: 10%

Question: And the inhibition (off-target kinases [7]; read-out: % Inhibition 2)?
Answer: 7%

Question: And the inhibition (off-target kinases [7]; read-out: % Inhibition Avg)?
Answer: 8%

Question: What about the inhibition (off-target kinases [8]; read-out: % Inhibition 1) of the same molecule?
Answer: 18%

Question: And the inhibition (off-target kinases [8]; read-out: % Inhibition 2)?
Answer: 21%

Question: And the inhibition (off-target kinases [8]; read-out: % Inhibition Avg)?
Answer: 20%
